Assay results as given in ChEMBL document CHEMBL5678818, “Discovery of potent SOS1 inhibitors that block RAS activation via disruption of the RAS-SOS1 interaction” (Proc Natl Acad Sci U S A, 2019).

Experiments:
[1] = biological target: Phosphatidylinositol 4,5-bisphosphate 3-kinase catalytic subunit beta isoform (Homo sapiens) (UniProt P42338); assay: Inhibition of PIK3CB (unknown origin) assessed as residual activity at 1000 nM by KINOMEscan analysis relative to control
[2] = biological target: T1, Megakaryocyte-associated tyrosine-protein kinase (Homo sapiens) (UniProt P42679); assay: Inhibition of CTK (unknown origin) assessed as residual activity at 1000 nM by KINOMEscan analysis relative to control
T1 sequence (whole entry): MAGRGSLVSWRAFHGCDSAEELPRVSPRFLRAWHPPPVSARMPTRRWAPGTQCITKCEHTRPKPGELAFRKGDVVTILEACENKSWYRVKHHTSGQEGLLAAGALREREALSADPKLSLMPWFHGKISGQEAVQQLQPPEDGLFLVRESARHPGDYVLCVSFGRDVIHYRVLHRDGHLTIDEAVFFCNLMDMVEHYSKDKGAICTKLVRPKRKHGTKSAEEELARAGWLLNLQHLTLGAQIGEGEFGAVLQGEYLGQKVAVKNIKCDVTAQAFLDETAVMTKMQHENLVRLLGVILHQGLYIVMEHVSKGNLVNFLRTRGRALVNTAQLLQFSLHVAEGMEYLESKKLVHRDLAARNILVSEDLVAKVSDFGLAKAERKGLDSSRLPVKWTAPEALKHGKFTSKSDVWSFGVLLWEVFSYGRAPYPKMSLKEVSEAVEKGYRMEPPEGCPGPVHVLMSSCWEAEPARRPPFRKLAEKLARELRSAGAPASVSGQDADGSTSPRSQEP

[3] = biological target: Tyrosine-protein kinase SYK (Homo sapiens) (UniProt P43405); assay: Inhibition of SYK (unknown origin) assessed as residual activity at 1000 nM by KINOMEscan analysis relative to control
[4] = biological target: Serine/threonine-protein kinase Chk2 (Homo sapiens) (UniProt O96017); assay: Inhibition of CHEK2 (unknown origin) assessed as residual activity at 1000 nM by KINOMEscan analysis relative to control
[5] = biological target: T2, Casein kinase I isoform alpha-like (Homo sapiens) (UniProt Q8N752); assay: Inhibition of CSNK1A1L (unknown origin) assessed as residual activity at 1000 nM by KINOMEscan analysis relative to control
T2 sequence (whole entry): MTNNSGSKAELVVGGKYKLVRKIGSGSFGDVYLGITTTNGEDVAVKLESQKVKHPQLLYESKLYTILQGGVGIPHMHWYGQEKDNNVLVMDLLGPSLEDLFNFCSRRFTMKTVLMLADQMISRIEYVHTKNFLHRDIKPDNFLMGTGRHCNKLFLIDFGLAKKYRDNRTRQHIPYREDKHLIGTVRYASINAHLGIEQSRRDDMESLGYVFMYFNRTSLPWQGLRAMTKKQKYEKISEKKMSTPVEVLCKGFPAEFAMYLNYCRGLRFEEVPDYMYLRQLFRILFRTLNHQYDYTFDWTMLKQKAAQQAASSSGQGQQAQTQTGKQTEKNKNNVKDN

[6] = biological target: T3, Serine/threonine-protein kinase LATS2 (Homo sapiens) (UniProt Q9NRM7); assay: Inhibition of LATS2 (unknown origin) assessed as residual activity at 1000 nM by KINOMEscan analysis relative to control
T3 sequence (whole entry): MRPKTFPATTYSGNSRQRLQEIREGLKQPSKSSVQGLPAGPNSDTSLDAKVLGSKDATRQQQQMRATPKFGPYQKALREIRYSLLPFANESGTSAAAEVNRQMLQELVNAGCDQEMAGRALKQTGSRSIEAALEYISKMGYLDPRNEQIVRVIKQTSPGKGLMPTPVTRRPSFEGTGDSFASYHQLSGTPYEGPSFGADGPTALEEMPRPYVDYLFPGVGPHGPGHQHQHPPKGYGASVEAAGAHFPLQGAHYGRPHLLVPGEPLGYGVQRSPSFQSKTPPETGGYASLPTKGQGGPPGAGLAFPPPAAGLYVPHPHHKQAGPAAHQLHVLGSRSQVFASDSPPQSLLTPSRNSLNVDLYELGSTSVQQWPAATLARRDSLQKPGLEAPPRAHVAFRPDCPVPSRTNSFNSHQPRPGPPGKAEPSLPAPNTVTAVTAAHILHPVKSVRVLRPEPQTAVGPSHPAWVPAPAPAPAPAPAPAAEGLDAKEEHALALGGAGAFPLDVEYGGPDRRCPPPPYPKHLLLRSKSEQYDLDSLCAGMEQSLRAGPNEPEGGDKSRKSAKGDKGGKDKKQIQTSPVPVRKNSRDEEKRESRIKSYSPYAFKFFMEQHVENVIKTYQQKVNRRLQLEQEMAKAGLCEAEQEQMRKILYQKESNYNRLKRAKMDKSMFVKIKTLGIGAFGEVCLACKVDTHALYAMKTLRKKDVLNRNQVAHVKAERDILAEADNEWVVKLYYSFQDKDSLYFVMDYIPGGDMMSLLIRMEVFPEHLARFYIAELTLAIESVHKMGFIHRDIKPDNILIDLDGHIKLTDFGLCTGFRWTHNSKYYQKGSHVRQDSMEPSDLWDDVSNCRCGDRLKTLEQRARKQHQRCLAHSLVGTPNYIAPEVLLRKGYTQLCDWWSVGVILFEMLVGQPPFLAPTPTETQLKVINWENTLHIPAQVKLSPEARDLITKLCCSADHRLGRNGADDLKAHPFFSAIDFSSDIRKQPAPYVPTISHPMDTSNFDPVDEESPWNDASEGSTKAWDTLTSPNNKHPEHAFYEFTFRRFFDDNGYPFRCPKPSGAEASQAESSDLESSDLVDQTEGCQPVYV

[7] = biological target: Non-receptor tyrosine-protein kinase TYK2 (Homo sapiens) (UniProt P29597); assay: Inhibition of TYK2 JH2 pseudokinase domain (unknown origin) assessed as residual activity at 1000 nM by KINOMEscan analysis relative to control
[8] = biological target: Ribosomal protein S6 kinase alpha-2 (Homo sapiens) (UniProt Q15349); assay: Inhibition of N-terminal RSK3 […] domain 1 (unknown origin) assessed as residual activity at 1000 nM by KINOMEscan analysis relative to control
[9] = biological target: Dual specificity mitogen-activated protein kinase kinase 1 (Homo sapiens) (UniProt Q02750); assay: Inhibition of MEK1 (unknown origin) assessed as residual activity at 1000 nM by KINOMEscan analysis relative to control
[10] = biological target: Ribosomal protein S6 kinase alpha-5 (Homo sapiens) (UniProt O75582); assay: Inhibition of N-terminal RPS6KA5 kinetic domain 1 (unknown origin) assessed as residual activity at 1000 nM by KINOMEscan analysis relative to control
Chain of Ribosomal protein S6 kinase alpha-5 (Homo sapiens) (O75582 whole entry, looked up, the tested form may be a part): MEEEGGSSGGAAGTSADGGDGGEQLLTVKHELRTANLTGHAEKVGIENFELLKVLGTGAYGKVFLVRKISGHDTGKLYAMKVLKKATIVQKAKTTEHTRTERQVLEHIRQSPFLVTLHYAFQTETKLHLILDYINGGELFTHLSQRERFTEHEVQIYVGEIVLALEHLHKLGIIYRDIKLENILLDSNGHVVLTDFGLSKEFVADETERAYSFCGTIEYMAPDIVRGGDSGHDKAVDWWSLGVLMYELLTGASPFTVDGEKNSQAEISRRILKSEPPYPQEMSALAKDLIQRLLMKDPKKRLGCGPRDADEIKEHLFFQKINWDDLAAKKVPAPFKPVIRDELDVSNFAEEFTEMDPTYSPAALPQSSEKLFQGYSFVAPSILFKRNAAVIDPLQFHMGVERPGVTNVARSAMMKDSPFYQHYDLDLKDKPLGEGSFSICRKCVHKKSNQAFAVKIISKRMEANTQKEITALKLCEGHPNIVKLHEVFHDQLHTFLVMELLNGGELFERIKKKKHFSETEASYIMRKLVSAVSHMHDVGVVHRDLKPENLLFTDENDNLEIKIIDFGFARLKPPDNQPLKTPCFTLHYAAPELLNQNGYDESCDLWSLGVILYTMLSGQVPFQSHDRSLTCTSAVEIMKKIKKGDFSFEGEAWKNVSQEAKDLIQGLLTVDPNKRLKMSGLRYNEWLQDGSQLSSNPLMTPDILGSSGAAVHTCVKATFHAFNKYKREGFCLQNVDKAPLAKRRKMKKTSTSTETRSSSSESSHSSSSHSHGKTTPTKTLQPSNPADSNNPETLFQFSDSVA

Chain of Ribosomal protein S6 kinase alpha-2 (Homo sapiens) (Q15349 whole entry): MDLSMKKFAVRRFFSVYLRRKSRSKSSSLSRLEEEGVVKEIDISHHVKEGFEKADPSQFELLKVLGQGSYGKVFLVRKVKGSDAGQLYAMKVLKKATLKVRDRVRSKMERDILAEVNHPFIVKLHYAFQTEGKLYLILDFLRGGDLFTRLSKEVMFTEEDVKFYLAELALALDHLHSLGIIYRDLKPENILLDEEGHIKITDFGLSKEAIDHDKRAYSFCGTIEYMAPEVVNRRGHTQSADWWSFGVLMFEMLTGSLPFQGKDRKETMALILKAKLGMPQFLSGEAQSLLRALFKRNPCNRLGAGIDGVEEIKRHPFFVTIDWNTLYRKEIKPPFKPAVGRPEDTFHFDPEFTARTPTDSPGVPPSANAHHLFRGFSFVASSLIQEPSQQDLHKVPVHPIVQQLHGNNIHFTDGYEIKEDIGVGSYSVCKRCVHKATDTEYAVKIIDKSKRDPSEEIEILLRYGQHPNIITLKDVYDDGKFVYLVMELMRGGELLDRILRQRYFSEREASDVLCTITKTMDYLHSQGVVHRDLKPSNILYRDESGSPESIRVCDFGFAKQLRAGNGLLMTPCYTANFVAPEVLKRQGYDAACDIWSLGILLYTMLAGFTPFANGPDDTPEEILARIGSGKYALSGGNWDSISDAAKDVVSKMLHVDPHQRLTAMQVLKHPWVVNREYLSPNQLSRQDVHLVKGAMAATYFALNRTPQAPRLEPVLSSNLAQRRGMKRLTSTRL
Chain of Phosphatidylinositol 4,5-bisphosphate 3-kinase catalytic subunit beta isoform (Homo sapiens) (P42338 whole entry, looked up, canonical isoform): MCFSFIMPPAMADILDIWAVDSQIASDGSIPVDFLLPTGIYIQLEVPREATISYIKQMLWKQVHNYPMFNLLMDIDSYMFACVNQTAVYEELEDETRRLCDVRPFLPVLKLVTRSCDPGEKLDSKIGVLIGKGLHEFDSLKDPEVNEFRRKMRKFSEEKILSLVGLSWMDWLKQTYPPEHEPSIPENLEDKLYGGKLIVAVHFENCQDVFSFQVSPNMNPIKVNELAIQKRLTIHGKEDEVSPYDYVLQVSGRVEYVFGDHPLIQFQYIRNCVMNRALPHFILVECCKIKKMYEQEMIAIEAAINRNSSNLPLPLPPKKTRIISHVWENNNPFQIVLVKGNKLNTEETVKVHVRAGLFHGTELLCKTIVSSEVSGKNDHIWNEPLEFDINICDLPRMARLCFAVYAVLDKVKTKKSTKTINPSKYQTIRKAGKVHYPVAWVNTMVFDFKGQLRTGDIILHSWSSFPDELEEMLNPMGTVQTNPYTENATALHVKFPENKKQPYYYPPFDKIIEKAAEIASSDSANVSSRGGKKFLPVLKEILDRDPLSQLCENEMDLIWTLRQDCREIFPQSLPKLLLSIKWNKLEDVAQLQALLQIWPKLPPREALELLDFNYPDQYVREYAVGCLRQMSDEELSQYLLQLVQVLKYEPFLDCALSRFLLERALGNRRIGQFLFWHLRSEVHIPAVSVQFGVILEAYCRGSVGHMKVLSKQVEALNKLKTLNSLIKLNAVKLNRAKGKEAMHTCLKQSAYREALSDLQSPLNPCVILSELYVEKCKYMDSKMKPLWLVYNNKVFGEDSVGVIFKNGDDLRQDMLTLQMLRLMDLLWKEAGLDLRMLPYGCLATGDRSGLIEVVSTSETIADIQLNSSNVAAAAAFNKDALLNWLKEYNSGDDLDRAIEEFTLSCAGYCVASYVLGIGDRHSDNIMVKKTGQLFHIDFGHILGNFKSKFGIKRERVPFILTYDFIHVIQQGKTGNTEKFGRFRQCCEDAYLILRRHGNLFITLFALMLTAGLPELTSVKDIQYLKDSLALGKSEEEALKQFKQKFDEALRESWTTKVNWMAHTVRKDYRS
Chain of Dual specificity mitogen-activated protein kinase kinase 1 (Homo sapiens) (Q02750 whole entry, the tested form may be a part): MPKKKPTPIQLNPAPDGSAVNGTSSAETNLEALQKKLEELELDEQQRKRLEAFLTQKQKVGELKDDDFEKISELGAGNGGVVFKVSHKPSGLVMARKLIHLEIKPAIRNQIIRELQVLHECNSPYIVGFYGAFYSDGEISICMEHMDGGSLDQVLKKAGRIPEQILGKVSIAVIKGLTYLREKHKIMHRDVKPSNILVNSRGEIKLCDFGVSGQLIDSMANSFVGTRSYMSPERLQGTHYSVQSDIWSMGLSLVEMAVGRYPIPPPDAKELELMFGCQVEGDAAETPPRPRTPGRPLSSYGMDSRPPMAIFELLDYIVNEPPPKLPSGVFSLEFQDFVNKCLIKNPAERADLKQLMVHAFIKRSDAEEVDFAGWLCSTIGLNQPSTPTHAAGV
Chain of Serine/threonine-protein kinase Chk2 (Homo sapiens) (O96017 whole entry, canonical isoform): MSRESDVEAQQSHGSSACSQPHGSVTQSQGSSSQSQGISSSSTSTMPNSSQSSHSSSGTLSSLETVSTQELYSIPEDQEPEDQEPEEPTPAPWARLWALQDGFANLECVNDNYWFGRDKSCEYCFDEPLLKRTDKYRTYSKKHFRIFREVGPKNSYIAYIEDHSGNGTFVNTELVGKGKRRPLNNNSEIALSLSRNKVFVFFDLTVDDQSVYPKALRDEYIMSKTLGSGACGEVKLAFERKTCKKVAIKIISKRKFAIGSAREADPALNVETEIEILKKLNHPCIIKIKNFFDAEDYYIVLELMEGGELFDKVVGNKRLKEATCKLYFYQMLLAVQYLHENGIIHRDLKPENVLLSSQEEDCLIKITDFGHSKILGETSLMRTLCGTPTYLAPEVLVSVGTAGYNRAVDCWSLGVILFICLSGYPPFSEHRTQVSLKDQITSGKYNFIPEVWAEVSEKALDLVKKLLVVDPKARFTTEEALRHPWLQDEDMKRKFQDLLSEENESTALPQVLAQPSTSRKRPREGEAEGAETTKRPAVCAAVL
Chain of Non-receptor tyrosine-protein kinase TYK2 (Homo sapiens) (P29597 whole entry, the tested form may be a part): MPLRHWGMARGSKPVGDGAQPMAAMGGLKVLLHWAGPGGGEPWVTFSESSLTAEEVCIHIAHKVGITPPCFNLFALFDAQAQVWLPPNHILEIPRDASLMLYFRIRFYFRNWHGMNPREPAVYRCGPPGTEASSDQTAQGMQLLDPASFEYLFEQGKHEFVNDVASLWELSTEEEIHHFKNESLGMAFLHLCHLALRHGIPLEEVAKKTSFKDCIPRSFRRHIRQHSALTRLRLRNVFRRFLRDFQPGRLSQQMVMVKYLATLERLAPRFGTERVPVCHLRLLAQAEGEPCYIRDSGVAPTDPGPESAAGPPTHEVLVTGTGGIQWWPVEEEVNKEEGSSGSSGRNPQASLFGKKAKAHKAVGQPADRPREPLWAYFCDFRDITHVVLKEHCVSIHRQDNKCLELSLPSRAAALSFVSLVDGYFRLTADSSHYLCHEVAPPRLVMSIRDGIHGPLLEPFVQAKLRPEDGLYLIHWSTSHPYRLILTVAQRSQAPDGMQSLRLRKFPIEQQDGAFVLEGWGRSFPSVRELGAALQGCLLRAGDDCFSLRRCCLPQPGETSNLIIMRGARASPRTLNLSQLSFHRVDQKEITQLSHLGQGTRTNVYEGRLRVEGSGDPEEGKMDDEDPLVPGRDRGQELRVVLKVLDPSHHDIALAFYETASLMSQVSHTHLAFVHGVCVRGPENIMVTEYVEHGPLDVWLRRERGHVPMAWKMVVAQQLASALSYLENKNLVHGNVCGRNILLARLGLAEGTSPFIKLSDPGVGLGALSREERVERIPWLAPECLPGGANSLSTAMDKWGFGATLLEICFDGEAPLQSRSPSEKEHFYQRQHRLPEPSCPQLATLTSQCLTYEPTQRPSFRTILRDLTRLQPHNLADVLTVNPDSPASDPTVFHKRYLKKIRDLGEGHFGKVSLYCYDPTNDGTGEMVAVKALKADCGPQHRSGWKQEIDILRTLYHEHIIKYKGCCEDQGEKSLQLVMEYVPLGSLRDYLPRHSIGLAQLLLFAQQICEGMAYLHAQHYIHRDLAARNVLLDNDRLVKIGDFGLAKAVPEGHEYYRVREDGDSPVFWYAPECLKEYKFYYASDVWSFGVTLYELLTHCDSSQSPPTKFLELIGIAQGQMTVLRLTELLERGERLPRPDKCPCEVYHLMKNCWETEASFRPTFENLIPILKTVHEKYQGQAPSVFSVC

| Structure (SMILES) | Activity [1] [%] | Activity [2] [%] | Activity [3] [%] | Activity [4] [%] | Activity [5] [%] | Activity [6] [%] | Activity [7] [%] | Activity [8] [%] | Activity [9] [%] | Activity [10] [%] |
| --- | --- | --- | --- | --- | --- | --- | --- | --- | --- | --- |
| COc1cc2nc(C)nc(N[C@H](C)c3cccc(-c4cn[nH]c4)c3)c2cc1OC | 89 | 99 | 76 | 89 | 65 | 100 | 80 | 94 | 85 | 92 |
| COc1cc2ncnc(N[C@H](C)c3cccc4ccccc34)c2cc1OC | 13 | 62 | 100 | 73 | 100 | 89 | 100 | 100 | 96 | 99 |
